From patent publication US12227500B2, “Substituted pyrrolo[2,3-b]pyridines for suppressing toxic endoplasmic reticulum stress” (THE TRUSTEES OF COLUMBIA UNIVERSITY IN THE CITY OF NEW YORK, priority 2018, dated 2025)
Read-outs that look alike come from different tables or passages of the source.

Key:
Assay in all cases: Radiolabeled ATP kinase assay, panel of 371 kinases (Table S6)
Format in all cases: biochemical
[1] = molecular target: T1, panel of 371 human kinases (Homo sapiens, UniProt P05129); conditions: PKCg; 0.1 μM; 10 μM ATP; read-out: % Enzyme Activity (relative to DMSO controls)
T1 construct: purchased Reaction Biology Corp
Description: (§1) ; FIG. 38C). […]. Further targeted analyses, such as genetic knock-down or knock-out, may be warranted to parse the role of these additional kinases in our model of neurodegeneration.

[2] = molecular target: T2, panel of 371 human kinases (Homo sapiens, UniProt O15111); conditions: IKKa/CHUK; 0.1 μM; 10 μM ATP; read-out: % Enzyme Activity (relative to DMSO controls)
T2 construct: purchased Reaction Biology Corp
Description: as §1

[3] = molecular target: T3, panel of 371 human kinases (Homo sapiens, UniProt P45985); conditions: MKK4; 0.1 μM; 10 μM ATP; read-out: % Enzyme Activity (relative to DMSO controls)
T3 construct: purchased Reaction Biology Corp
Description: as §1

[4] = molecular target: T4, panel of 371 human kinases (Homo sapiens, UniProt Q08345); conditions: DDR1; 0.1 μM; 10 μM ATP; read-out: % Enzyme Activity (relative to DMSO controls)
T4 construct: purchased Reaction Biology Corp
Description: as §1

[5] = molecular target: T5, panel of 371 human kinases (Homo sapiens, UniProt Q00537); conditions: CDK17/cyclin Y (PCTK2); 0.1 μM; 10 μM ATP; read-out: % Enzyme Activity (relative to DMSO controls)
T5 construct: purchased Reaction Biology Corp
Description: as §1

[6] = molecular target: T6, panel of 371 human kinases (Homo sapiens, UniProt P42685); conditions: FRK/PTK5; 0.1 μM; 10 μM ATP; read-out: % Enzyme Activity (relative to DMSO controls)
T6 construct: purchased Reaction Biology Corp
Description: as §1

[7] = molecular target: T7, panel of 371 human kinases (Homo sapiens, UniProt Q8IYT8); conditions: ULK2; 0.1 μM; 10 μM ATP; read-out: % Enzyme Activity (relative to DMSO controls)
T7 construct: purchased Reaction Biology Corp
Description: as §1

[8] = molecular target: T8, panel of 371 human kinases (Homo sapiens, UniProt Q16832); conditions: DDR2; 0.1 μM; 10 μM ATP; read-out: % Enzyme Activity (relative to DMSO controls)
T8 construct: purchased Reaction Biology Corp
Description: as §1

[9] = molecular target: T9, panel of 371 human kinases (Homo sapiens, UniProt Q9Y3S1); conditions: WNK2; 0.1 μM; 10 μM ATP; read-out: % Enzyme Activity (relative to DMSO controls)
T9 construct: purchased Reaction Biology Corp
Description: as §1

[10] = molecular target: T10, panel of 371 human kinases (Homo sapiens, UniProt Q8NE63); conditions: HIPK4; 0.1 μM; 10 μM ATP; read-out: % Enzyme Activity (relative to DMSO controls)
T10 construct: purchased Reaction Biology Corp
Description: as §1

[11] = molecular target: T11, panel of 371 human kinases (Homo sapiens, UniProt P51813); conditions: BMX/ETK; 0.1 μM; 10 μM ATP; read-out: % Enzyme Activity (relative to DMSO controls)
T11 construct: purchased Reaction Biology Corp
Description: as §1

[12] = molecular target: T12, panel of 371 human kinases (Homo sapiens, UniProt P07949); conditions: RET; 0.1 μM; 10 μM ATP; read-out: % Enzyme Activity (relative to DMSO controls)
T12 construct: purchased Reaction Biology Corp
Description: as §1

[13] = molecular target: T13, panel of 371 human kinases (Homo sapiens, UniProt P53671); conditions: LIMK2; 0.1 μM; 10 μM ATP; read-out: % Enzyme Activity (relative to DMSO controls)
T13 construct: purchased Reaction Biology Corp
Description: as §1

[14] = molecular target: T14, panel of 371 human kinases (Homo sapiens, UniProt P06493); conditions: 0.1 μM, 10 μM ATP, read-out: % Enzyme Activity (relative to DMSO controls)
T14 construct: purchased Reaction Biology Corp
Description: as §1

[15] = molecular target: T15, panel of 371 human kinases (Homo sapiens, UniProt O75460); conditions: ERN1/IRE1; 0.1 μM; 10 μM ATP; read-out: % Enzyme Activity (relative to DMSO controls)
T15 construct: purchased Reaction Biology Corp
Description: as §1

[16] = molecular target: T16, panel of 371 human kinases (Homo sapiens, UniProt P22612); conditions: PKAcg; 0.1 μM; 10 μM ATP; read-out: % Enzyme Activity (relative to DMSO controls)
T16 construct: purchased Reaction Biology Corp
Description: as §1

[17] = molecular target: T17, panel of 371 human kinases (Homo sapiens, UniProt Q8IVH8); conditions: for remaining activity at 0.1 µM: GLK/MAP4K3, 10 μM ATP, read-out: % Enzyme Activity (relative to DMSO controls)
T17 construct: purchased Reaction Biology Corp
T17 sequence (Q8IVH8 1-894): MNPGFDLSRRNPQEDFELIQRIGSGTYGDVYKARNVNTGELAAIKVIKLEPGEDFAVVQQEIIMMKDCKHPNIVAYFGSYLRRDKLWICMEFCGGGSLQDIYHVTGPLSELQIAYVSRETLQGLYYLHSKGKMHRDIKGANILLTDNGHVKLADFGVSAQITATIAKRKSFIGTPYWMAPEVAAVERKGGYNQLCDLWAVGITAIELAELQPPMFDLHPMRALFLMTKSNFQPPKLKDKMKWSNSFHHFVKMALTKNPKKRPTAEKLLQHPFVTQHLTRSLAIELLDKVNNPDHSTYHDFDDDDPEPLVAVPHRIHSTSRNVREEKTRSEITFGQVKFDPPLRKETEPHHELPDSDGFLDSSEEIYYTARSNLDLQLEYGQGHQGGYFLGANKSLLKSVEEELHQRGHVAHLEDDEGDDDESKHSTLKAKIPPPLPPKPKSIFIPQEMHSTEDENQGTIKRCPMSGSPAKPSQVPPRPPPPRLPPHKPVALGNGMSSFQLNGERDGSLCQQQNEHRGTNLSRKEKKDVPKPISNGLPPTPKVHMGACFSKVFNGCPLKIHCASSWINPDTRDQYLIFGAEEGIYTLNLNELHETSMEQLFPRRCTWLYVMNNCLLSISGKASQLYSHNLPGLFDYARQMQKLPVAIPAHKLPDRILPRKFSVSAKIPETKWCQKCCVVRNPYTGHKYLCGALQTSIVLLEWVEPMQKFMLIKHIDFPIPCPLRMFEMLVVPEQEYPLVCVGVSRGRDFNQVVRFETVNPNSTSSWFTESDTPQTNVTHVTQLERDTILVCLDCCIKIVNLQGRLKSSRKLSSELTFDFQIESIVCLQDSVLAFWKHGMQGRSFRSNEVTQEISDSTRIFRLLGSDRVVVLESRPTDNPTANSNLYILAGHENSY
Description: as §1

T14 sequence (P06493 whole entry): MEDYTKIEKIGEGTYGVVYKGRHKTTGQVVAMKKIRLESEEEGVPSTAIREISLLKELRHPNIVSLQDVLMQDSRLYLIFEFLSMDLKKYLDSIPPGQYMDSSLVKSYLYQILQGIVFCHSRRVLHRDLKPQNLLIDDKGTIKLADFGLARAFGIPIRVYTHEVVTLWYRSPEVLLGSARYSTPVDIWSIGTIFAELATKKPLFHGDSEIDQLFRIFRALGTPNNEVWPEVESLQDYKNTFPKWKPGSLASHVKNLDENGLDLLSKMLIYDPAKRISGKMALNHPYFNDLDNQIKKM
T8 sequence (Q16832 22-855): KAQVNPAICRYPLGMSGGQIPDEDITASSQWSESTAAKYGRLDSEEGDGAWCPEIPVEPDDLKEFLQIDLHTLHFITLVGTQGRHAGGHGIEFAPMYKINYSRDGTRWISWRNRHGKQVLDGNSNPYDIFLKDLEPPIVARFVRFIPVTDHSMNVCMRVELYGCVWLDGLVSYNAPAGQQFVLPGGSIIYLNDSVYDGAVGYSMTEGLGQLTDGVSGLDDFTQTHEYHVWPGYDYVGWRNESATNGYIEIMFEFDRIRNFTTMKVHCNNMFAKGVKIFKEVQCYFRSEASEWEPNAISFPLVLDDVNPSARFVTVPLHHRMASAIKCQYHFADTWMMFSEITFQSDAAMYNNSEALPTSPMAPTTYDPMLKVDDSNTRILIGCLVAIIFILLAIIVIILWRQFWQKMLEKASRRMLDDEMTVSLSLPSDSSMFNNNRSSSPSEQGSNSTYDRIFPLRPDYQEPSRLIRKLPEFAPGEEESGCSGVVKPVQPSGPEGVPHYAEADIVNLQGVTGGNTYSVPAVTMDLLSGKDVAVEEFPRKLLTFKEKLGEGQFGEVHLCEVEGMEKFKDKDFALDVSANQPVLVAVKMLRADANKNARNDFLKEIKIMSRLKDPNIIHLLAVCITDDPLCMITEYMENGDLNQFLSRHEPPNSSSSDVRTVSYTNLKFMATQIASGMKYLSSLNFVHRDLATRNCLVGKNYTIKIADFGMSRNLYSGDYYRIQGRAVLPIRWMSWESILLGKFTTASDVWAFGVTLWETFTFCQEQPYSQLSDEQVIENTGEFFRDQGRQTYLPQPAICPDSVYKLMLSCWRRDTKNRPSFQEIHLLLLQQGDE
T15 sequence (O75460 19-977): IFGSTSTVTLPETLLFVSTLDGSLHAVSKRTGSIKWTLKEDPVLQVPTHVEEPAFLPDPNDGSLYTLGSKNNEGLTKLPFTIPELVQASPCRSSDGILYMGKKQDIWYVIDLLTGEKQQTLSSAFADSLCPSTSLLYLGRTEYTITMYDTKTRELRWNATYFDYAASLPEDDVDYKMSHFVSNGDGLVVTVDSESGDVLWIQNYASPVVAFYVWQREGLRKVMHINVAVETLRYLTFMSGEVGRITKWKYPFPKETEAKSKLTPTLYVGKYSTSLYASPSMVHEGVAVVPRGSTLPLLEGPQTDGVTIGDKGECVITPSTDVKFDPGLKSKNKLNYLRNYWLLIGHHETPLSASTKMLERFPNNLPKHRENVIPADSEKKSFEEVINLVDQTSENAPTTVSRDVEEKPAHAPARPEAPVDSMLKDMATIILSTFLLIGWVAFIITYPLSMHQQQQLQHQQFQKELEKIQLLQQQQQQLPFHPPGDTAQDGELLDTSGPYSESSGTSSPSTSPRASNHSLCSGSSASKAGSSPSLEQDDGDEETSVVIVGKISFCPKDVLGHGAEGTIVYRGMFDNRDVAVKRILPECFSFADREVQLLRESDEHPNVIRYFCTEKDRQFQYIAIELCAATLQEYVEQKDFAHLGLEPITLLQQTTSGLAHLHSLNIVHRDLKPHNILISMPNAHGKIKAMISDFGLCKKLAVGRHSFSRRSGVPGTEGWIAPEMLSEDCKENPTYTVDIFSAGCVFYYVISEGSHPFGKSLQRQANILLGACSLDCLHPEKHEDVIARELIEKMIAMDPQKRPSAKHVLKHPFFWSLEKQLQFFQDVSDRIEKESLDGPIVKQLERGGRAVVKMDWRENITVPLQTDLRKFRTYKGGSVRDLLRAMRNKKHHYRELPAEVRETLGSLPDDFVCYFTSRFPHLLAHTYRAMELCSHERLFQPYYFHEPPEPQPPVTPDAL
T4 sequence (Q08345 19-913): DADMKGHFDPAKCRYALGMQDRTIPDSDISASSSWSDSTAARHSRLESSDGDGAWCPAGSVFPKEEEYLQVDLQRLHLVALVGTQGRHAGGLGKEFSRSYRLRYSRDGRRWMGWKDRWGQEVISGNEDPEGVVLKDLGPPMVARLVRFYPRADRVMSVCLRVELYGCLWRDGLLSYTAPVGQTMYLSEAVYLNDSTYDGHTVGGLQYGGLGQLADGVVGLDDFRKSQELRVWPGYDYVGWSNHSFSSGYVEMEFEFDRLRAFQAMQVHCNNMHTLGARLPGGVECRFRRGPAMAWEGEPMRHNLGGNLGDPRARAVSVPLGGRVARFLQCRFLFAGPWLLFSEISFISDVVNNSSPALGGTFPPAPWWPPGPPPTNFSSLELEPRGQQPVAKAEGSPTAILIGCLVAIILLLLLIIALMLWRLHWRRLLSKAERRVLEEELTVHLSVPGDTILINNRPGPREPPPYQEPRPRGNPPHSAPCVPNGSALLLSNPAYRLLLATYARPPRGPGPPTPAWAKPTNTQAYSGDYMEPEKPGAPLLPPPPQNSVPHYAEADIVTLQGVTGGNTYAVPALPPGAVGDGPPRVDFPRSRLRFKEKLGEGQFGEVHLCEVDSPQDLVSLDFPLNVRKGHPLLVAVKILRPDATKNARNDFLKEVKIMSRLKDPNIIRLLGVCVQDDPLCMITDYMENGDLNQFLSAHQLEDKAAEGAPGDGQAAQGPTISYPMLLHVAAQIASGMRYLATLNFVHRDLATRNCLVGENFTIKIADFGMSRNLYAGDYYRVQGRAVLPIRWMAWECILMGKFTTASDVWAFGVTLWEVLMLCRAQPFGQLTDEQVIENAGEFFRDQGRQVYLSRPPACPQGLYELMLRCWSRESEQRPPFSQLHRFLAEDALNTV
T3 sequence (P45985 whole entry): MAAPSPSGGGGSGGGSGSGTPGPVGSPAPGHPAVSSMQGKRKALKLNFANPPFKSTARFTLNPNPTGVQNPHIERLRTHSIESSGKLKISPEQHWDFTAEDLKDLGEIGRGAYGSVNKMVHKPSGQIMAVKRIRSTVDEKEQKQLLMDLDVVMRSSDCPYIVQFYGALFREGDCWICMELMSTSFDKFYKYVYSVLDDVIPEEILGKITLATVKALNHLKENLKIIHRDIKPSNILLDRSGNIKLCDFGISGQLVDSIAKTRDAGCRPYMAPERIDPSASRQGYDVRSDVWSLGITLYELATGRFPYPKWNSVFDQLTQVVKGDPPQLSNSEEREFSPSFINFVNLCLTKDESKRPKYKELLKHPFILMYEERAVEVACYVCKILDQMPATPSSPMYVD
T10 sequence (Q8NE63 whole entry): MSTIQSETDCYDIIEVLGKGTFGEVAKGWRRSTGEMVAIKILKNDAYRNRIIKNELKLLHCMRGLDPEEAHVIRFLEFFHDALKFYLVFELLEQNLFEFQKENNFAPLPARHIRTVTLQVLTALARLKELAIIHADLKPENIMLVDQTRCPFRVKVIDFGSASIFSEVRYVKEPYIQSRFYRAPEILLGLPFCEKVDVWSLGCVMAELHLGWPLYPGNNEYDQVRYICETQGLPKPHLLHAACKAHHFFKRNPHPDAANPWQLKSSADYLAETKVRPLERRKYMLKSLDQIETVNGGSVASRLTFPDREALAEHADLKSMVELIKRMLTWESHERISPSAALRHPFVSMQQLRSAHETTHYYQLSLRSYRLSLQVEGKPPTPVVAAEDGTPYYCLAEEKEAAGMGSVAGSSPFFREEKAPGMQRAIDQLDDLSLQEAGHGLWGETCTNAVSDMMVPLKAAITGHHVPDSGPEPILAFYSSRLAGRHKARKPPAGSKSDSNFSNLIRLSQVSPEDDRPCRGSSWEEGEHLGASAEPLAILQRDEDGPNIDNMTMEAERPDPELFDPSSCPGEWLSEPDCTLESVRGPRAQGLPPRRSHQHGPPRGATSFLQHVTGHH
T16 sequence (P22612 whole entry): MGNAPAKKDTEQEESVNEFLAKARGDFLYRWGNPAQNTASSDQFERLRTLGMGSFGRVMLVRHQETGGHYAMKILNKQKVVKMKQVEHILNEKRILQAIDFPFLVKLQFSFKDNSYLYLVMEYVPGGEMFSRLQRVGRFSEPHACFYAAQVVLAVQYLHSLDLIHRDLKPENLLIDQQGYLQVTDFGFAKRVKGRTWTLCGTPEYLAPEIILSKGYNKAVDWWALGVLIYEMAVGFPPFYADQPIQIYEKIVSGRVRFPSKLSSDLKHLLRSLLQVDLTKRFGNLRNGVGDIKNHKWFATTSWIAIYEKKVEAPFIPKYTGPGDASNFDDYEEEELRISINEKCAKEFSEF

SMILES | remaining activity at 0.1 µM [1] [%] | remaining activity at 0.1 µM [2] [%] | remaining activity at 0.1 µM [3] [%] | remaining activity at 0.1 µM [4] [%] | remaining activity at 0.1 µM [5] [%] | remaining activity at 0.1 µM [6] [%] | remaining activity at 0.1 µM [7] [%] | remaining activity at 0.1 µM [8] [%] | remaining activity at 0.1 µM [9] [%] | remaining activity at 0.1 µM [10] [%] | remaining activity at 0.1 µM [11] [%] | remaining activity at 0.1 µM [12] [%] | remaining activity at 0.1 µM [13] [%] | remaining activity at 0.1 µM ([14]; CDK1/cyclin A) [%] | remaining activity at 0.1 µM ([14]; CDK1/cyclin B) [%] | remaining activity at 0.1 µM ([14]; CDK1/cyclin E) [%] | remaining activity at 0.1 µM [15] [%] | remaining activity at 0.1 µM [16] [%] | remaining activity at 0.1 µM [17] [%] | fold change in GLK activity following 12k exposure relative to 1 ([17]; 0.025 μM) [fold]
CN1CCN(Cc2ccc(-c3cnc4[nH]cc(-c5ccc6[nH]ccc6c5)c4c3)cc2)CC1 [Compound 1, 3-(1H-Indol-5-yl)-5-(4-((4-methylpiperazin-1-yl)methyl)phenyl)-1H-pyrrolo[2,3-b]pyridine, reference compound] | 89 | 96.8 | 105 | 89.9 | 88 | 91.1 | 80.4 | 102 | 93 | 107 | 101 | 76.7 | 103 | 95.1 | 96.5 | 98.7 | 107 | 102 | 49.2 | 
OCCN1CCN(Cc2ccc(-c3cnc4[nH]cc(-c5cccc(Cl)c5)c4c3)cc2)CC1 [Compound 12k, 2-(4-(4-(3-(3-Chlorophenyl)-1H-pyrrolo[2,3-b]pyridin-5-yl)benzyl)piperazin-1-yl)ethan-1-ol] | 106 | 101 | 110 | 86.6 | 74 | 98.3 | 36 | 100 | 94.8 | 105 | 103 | 91.5 | 101 | 79.9 | 84.9 | 91.1 | 98.9 | 99.4 | 7.18 | 6.84
